Structures are written as SMILES.

The assay has as its target T1, human M4 receptor (Homo sapiens, UniProt P08173).
T1 construct: expressed in transfected cells; host or cells: CHO cells
T1 sequence (P08173 1-479): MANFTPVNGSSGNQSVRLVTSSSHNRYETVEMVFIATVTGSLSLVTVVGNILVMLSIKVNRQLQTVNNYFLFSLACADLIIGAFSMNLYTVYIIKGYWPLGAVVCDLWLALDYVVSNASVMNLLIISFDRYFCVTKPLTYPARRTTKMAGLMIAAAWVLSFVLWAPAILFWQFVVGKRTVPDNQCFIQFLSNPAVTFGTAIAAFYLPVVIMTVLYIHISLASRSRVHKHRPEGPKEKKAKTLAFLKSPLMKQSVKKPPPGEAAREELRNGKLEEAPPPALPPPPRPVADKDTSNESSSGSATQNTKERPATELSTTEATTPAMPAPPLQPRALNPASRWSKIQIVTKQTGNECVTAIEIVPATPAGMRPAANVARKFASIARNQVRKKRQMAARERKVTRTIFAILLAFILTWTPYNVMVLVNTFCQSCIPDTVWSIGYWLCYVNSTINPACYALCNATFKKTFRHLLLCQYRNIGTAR
The experiment in a line: Radioligand ([3H]N-methylscopolamine) binding assay, membranes from CHO cells expressing human M4 receptor. The note with it: Ki against human M4 receptor; membranes from CHO cells; tritiated N-methylscopolamine 1.5 nM; read-out: K. The protocol: Binding affinity (Ki) for the compounds was measured by inhibition of radioligand binding to membranes from CHO cells expressing human M4 receptor. Membranes were prepared by nitrogen cavitation and differential centrifugation as previously described (Hoare et al., Mol. Pharmacol. 2003 March; 63(3): 751-65). The radioligand employed was tritiated N-methylscopolamine, used at a concentration of 1.5 nM. A dose-response of twelve concentrations of compound was used, ranging from […]. The assay buffer was 50 mM HEPES, 100 mM NaCl, 5 mM MgCl2, 1 mM ethylenediaminetetraacetic acid, pH-adjusted to pH 7.4. Membranes, radioligand and compound were incubated together for 90 minutes at 37° C., in a total volume of 150 μL in a 96-well plate. Receptor-bound radioligand was then collected by harvesting the assay over glass fiber filters pretreated with polyethylenimine to trap the cell membranes, using rapid vacuum filtration. Harvesting and radioactivity counting was conducted as previously described (see, e.g., Hoare et al., Mol. Pharmacol. 2003 63(3):751-65); Erratum at Mol. Pharmacol. 2005 July; 68(1): 260).
For the compound `C[C@@H]1CN(c2ncc(C(F)(F)F)cn2)C[C@@H](C)N1C(=O)NCC1CC2(C1)CN(Cc1ccccc1)C2` [Compound 68, (2R,6R)-N-({2-benzyl-2-azaspiro[3.3]heptan-6-yl}methyl)-2,6-dimethyl-4-[5-(trifluoromethyl)pyrimidin-2-yl]piperazine-1-carboxamide], the Ki fell in the range of 0.01 to 0.1 µM. Next, `C[C@@H]1CN(c2ncc(C(F)(F)F)cn2)C[C@H](C)N1C(=O)NCC1CC2(C1)CN(Cc1ccccc1)C2` [Compound 97, (2R,6S)-N-({2-benzyl-2-azaspiro[3.3]heptna-6-yl}methyl)-2,6-dimethyl-4-[5-(trifluoromethyl)pyrimidin-2-yl]piperazine-1-carboxamide]: 0.01 to 0.1 µM; `O=C(OC1CC2(C1)CN(Cc1ccccc1)C2)N1CCN(c2cc(F)c(F)c(F)c2)CC1` [Compound 105, 2-benzyl-2-azaspiro[3.3]heptan-6-yl 4-(3,4,5-trifluorophenyl)piperazine-1-carboxylate]: 0.1 to 1 µM; `O=C(OC1CC2(C1)CN(Cc1ccccc1)C2)N1CCN(c2ccc(OC(F)(F)F)cc2)CC1` [Compound 108, 2-benzyl-2-azaspiro[3.3]heptan-6-yl 4-[4-(trifluoromethoxy)phenyl]piper-azine-1-carboxylate]: 0.1 to 1 µM. As to `O=C(OC1CC2(C1)CN(Cc1ccccc1)C2)N1C2CC1CN(c1cnc(C(F)(F)F)cn1)C2` [Compound 110, 2-benzyl-2-azaspiro[3.3]heptan-6-yl 3-[5-(trifluoromethyl)pyrazin-2-yl]-3,6-diazabicyclo[3.1.1]heptane-6-carboxylate], the Ki lay in the range of 0.1 to 1 µM.

In the case of `N#Cc1cnc(N2CC3CC(C2)N3C(=O)OC2CC3(C2)CN(Cc2ccccc2)C3)cn1` [Compound 111, 2-benzyl-2-azaspiro[3.3]heptan-6-yl 3-(5-cyanopyrazin-2-yl)-3,6-diazabicyclo[3.1.1]heptane-6-carboxylate], the Ki was in the range of 0.1 to 1 µM.

Consider `C[C@H]1CN(C(=O)OC2CC3(C2)CN(Cc2ccccc2)C3)CCN1c1ncc(C#N)cn1` [Compound 119, 2-benzyl-2-azaspiro[3.3]heptan-6-yl (3S)-4-(5-cyanopyrimidin-2-yl)-3-methylpiperazine-1-carboxylate], for which the Ki lay in the range of 0.1 to 1 µM.

On to `O=C(OC1CC2(C1)CN(Cc1ccccc1)C2)N1CCN(c2ccc(C(F)(F)F)cn2)CC1` [Compound 121, 2-benzyl-2-azaspiro[3.3]heptan-6-yl 4-[5-(trifluoromethyl)pyridin-2-yl]piperazine-1-carboxylate], for which the Ki lay in the range of 0.1 to 1 µM. As to `C[C@H]1CN(C(=O)OC2CC3(C2)CN(Cc2ccccc2)C3)CCN1c1ncc(C(F)(F)F)cn1` [Compound 123, 2-benzyl-2-azaspiro[3.3]heptan-6-yl (3S)-3-methyl-4-[5-(trifluoromethyl)pyrimidin-2-yl]piperazine-1-carboxylate], the Ki is < 0.01 µM. Next, `O=C(OC1CC2(C1)CN(Cc1ccccc1)C2)N1CCN(c2ccc(C(F)(F)F)cc2)CC1` [Compound 125, 2-benzyl-2-azaspiro[3.3]heptan-6-yl 4-[4-(trifluoromethyl)phenyl]pipera-zine-1-carboxylate]: 0.1 to 1 µM; `N#Cc1cc(C(F)(F)F)ccc1N1CCN(C(=O)OC2CC3(C2)CN(Cc2ccccc2)C3)CC1` [Compound 126, 2-benzyl-2-azaspiro[3.3]heptan-6-yl 4-[2-cyano-4-(trifluoromethyl)phenyl]pipera-zine-1-carboxylate]: 0.1 to 1 µM; `C[C@@H]1CN(c2ncc(C#N)cn2)C[C@H](C)N1C(=O)OC1CC2(C1)CN(Cc1ccccc1)C2` [Compound 130, 2-Benzyl-2-azaspiro[3.3]heptan-6-yl (2R,6S)-4-(5-cyanopyrimidin-2-yl)-2,6-dimethylpiperazine-1-carboxylate]: 0.01 to 0.1 µM.

As to `C[C@@H]1CN(c2ncc(C(F)(F)F)cn2)CCN1C(=O)OC1CC2(C1)CN(Cc1ccccc1)C2` [Compound 132, 2-benzyl-2-azaspiro[3.3]heptan-6-yl (2R)-2-methyl-4-[5-(trifluoromethyl)pyrimidin-2-yl]piperazine-1-carboxylate], the Ki was < 0.01 µM. Next, `C[C@@H]1CN(c2ncc(C(F)(F)F)cn2)CCN1C(=O)OCC1CC2(C1)CN(Cc1ccccc1)C2` [Compound 133, {2-benzyl-2-azaspiro[3.3]heptan-6-yl}methyl (2R)-2-methyl-4-[5-(trifluoromethyl)pyrimidin-2-yl]piperazine-1-carboxylate]: 0.01 to 0.1 µM; `C[C@@H]1CN(c2ncc(C(F)(F)F)cn2)[C@H](C)CN1C(=O)OC1CC2(C1)CN(Cc1ccccc1)C2` [Compound 135, 2-benzyl-2-azaspiro[3.3]heptan-6-yl (2R,5R)-2,5-dimethyl-4-[5-(trifluoromethyl)pyrimidin-2-yl]piperazine-1-carboxylate]: 0.01 to 0.1 µM. Next, `C[C@@H]1CN(c2ncc(C(F)(F)F)cn2)[C@@H](C)CN1C(=O)OC1CC2(C1)CN(Cc1ccccc1)C2` [Compound 136, 2-Benzyl-2-azaspiro[3.3]heptan-6-yl (2R,5S)-2,5-dimethyl-4-[5-(trifluoromethyl)pyrimidin-2-yl]piperazine-1-carboxylate]: < 0.01 µM; `C[C@@H]1CN(c2ncc(C#N)cn2)[C@@H](C)CN1C(=O)OC1CC2(C1)CN(Cc1ccccc1)C2` [Compound 138, 2-benzyl-2-azaspiro[3.3]heptan-6-yl (2R,5S)-4-(5-cyanopyrimidin-2-yl)-2,5-dimethylpiperazine-1-carboxylate]: 0.01 to 0.1 µM; `C[C@@H]1CN(c2ncc(C(F)(F)F)cn2)C[C@@H](C)N1C(=O)OC1CC2(C1)CN(Cc1ccccc1)C2` [Compound 139, 2-Benzyl-2-azaspiro[3.3]heptan-6-yl (2R,6R)-2,6-dimethyl-4-[5-(trifluoromethyl)pyrimidin-2-yl]piperazine-1-carboxylate]: < 0.01 µM. Next, `C[C@@H]1CN(c2cnc(C(F)(F)F)cn2)C[C@@H](C)N1C(=O)OC1CC2(C1)CN(Cc1ccccc1)C2` [Compound 142, 2-benzyl-2-azaspiro[3.3]heptan-6-yl (2R,6R)-2,6-dimethyl-4-[5-(trifluoromethyl)pyrazin-2-yl]piperazine-1-carboxylate]: 0.01 to 0.1 µM; `C[C@@H]1CN(c2cnc(C(F)(F)F)cn2)C[C@@H](C)N1C(=O)OCC1CC2(C1)CN(Cc1ccccc1)C2` [Compound 143, {2-benzyl-2-azaspiro[3.3]heptan-6-yl}methyl (2R,6R)-2,6-dimethyl-4-[5-(trifluoromethyl)pyrazin-2-yl]piperazine-1-carboxylate]: 0.1 to 1 µM. As for `C[C@@H]1CN(c2ncc(C(F)(F)F)cn2)C[C@@H](C)N1C(=O)OCC1CC2(C1)CN(Cc1ccccc1)C2` [Compound 144, {2-benzyl-2-azaspiro[3.3]heptan-6-yl}methyl (2R,6R)-2,6-dimethyl-4-[5-(trifluoromethyl)pyrimidin-2-yl]piperazine-1-carboxylate], the Ki lay in the range of 0.01 to 0.1 µM. Turning to `C[C@@H]1CN(c2ncc(C(F)(F)F)cn2)C[C@@H](C)N1C(=O)OC1CC2(C1)CN(CCC(C)(C)C)C2` [Compound 145, 2-(3,3-dimethylbutyl)-2-azaspiro[3.3]heptan-6-yl (2R,6R)-2,6-dimethyl-4-[5-(trifluoromethyl)pyrimidin-2-yl]piperazine-1-carboxylate], the Ki fell in the range of 0.1 to 1 µM. `C[C@@H]1CN(c2ncc(C(F)(F)F)cn2)C[C@@H](C)N1C(=O)OC1CC2(C1)CN(CC(C)(C)C)C2` [Compound 146, 2-(2,2-dimethylpropyl)-2-azaspiro[3.3]heptan-6-yl (2R,6R)-2,6-dimethyl-4-[5-(trifluoromethyl)pyrimidin-2-yl]piperazine-1-carboxylate]: the Ki fell in the range of 0.1 to 1 µM. As to `C[C@@H]1CN(c2ncc(C(F)(F)F)cn2)C[C@H](C)N1C(=O)OC1CC2(C1)CN(CCC(C)(C)C)C2` [Compound 149, 2-(3,3-dimethylbutyl)-2-azaspiro[3.3]heptan-6-yl (2R,6S)-2,6-dimethyl-4-[5-(trifluoromethyl)pyrimidin-2-yl]piperaizne-1-carboxylate], the Ki is 0.1 to 1 µM. Next, `C[C@@H]1CN(c2ncc(C(F)(F)F)cn2)C[C@H](C)N1C(=O)OC1CC2(C1)CN(CC1CC1(C)C)C2` (stereo partly drawn) [Compound 153, 2-[(2,2-dimethylcyclopropyl)methyl]-2-azaspiro[3.3]heptan-6-yl (2R,6S)-2,6-dimethyl-4-[5-(trifluoromethyl)pyrimidin-2-yl]piperazine-1-carboxylate]: < 0.01 µM.

As to `C[C@@H]1CN(c2ncc(C(F)(F)F)cn2)C[C@H](C)N1C(=O)OC1CC2(C1)CN(CC1CCCCC1)C2` [Compound 154, 2-(cyclohexylmethyl)-2-azaspiro[3.3]heptan-6-yl (2R,6S)-2,6-dimethyl-4-[5-(trifluoromethyl)pyrimidin-2-yl]piperazine-1-carboxylate], the Ki lay in the range of 0.01 to 0.1 µM.
